Experimental data as given in US11685747B2, “Compounds that inhibit MCL-1 protein” (AMGEN INC., priority 2014, dated 2023).
pIC50: −log10 of the molar value.

Key:
[1] = target: T1, Mcl-1/Bak protein-protein interactions (Homo sapiens, UniProt Q07820); test: Cell-based split luciferase complementation assay; settings: HEK 293 M cells, serum-free, 4 h
T1 construct: expressed in transfected cells; host or cells: HEK 293 M cells, transient transfection
Procedure: Cell-Based Assay (Split Luciferase)
A split luciferase complementation assay was developed to determine the inhibition of Mcl-1/Bak protein-protein interactions in cells. […] Transient transfection was performed using Lipofectamine® LTX/Plus™ reagent (Life Technologies, Grand Island, N.Y.). 24 h after transfection, cells were collected using non-enzyme based cell dissociation buffer StemPro® Accutase® (Life Technologies), and resuspended in serum-free Opti-MEM® (Life Technologies). Cells were then seeded into assay plates with serially diluted test compounds in 0.3% DMSO at density of a 5000 cells/well. Cells were then incubated for 4 h at 37° C. in a cell culture incubator supplement with 5% CO2. Test plates were equilibrated to room temperate for 30 min before addition of 30 μL Steady-Glo® Luciferase assay reagent (Promega, Madison, Wis.) into each test well. Luminescence was determined using an EnVision® Multilabel plate reader 25 min after the addition of detection reagent. IC50 values were then calculated with Xlfit using a logistical 4-parameter fit model in GraphPad Prism (GraphPad Software, San Diego, Calif.) or in Genedata Screener® (Genedata, Basel, Switzerland).

[2] = target: T2, recombinant human Mcl-1 (Homo sapiens, UniProt Q07820); test: Cell free Mcl-1:Bim affinity assay (Mcl-1 HTRF, TR-FRET); format: binding; settings: inhibition of Mcl-1/Bim interaction
T2 construct: C-terminally 6×His tagged Mcl-1 containing residues 171-327; made in house
T2 sequence (Q07820 171-327): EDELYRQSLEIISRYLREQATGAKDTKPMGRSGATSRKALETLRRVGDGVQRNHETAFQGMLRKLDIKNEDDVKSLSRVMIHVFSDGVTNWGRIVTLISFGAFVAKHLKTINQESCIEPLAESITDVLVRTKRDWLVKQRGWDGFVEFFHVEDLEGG
Procedure: Cell Free Mcl-1:Bim Affinity Assay (Mcl-1 HTRF)
The inhibition of the Mcl-1/Bim interaction was measured using a time-resolved fluorescence resonance energy transfer (TR-FRET) assay. […] A biotinylated peptide derived from human Bim (residues 51-76) was purchased from CPC Scientific (San Jose, Calif.). The TR-FRET assay was conducted in a 384-well white OptiPlate™ (PerkinElmer, Waltham, Mass.) in a total volume of 40 μL. […] The reaction plates were further incubated overnight and then were read on an Envision® multimode reader (PerkinElmer). […] The IC50 values of test compounds were determined from duplicate data by analyzing competition curves using a four-parameter sigmoidal model in GraphPad Prism (GraphPad Software, San Diego, Calif.) or in Genedata Screener® (Genedata, Basel, Switzerland).

[3] = tested on: OPM-2; test: Cell viability assay (OPM-2 10 FBS, CellTiter-Glo); format: cell-based, human; settings: OPM-2 cells
Procedure: Cell Viability Assay (OPM-2 10 FBS)
Cells were seeded into 384-well plates at 3000 cells/well density in complete growth medium containing 10% FBS, and incubated for 16 h with serially diluted test compounds in a 37° C. incubator with 5% CO2. Cell viability was tested using CellTiter-Glo® assay (Promega, Madison, Wis.) according to the manufacturer recommendations. Luminescence was determined using an EnVision® Multilabel plate reader 25 min after the addition of detection reagent. IC50 values were then calculated with Xlfit using a logistical 4-parameter fit model in GraphPad Prism (GraphPad Software, San Diego, Calif.) or in Genedata Screener® (Genedata, Basel, Switzerland).

T1 sequence (Q07820 whole entry): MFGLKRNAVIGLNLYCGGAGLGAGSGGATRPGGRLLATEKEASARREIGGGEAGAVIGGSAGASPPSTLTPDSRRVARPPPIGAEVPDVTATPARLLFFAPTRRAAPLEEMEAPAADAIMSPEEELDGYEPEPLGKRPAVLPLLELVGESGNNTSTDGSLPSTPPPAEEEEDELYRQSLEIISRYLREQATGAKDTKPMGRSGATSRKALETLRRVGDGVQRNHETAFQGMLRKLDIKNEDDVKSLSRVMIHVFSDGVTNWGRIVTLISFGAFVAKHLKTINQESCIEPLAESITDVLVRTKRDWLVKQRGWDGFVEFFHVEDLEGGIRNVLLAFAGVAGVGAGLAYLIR

Structure (SMILES)	pIC50 [1]	pIC50 [2]	pIC50 ([3]; Homo sapiens, OPM-2, 16 h)	pIC50 ([3]; 16 h)	pIC50 ([3]; Homo sapiens, 16 h)
CC[C@@H]1[C@@H](C)C/C=C/[C@H](OC)[C@@H]2CC[C@H]2CN2C[C@@]3(CCCc4cc(Cl)ccc43)COc3ccc(cc32)C(=O)NS1(=O)=O [Example 25, (1S,3′R,6′R,7′S,8′E,11′S,12′R)-6-Chloro-12′-Ethyl-7′-Methoxy-11′-Methyl-3,4-Dihydro-2H,15′H-Spiro[Naphthalene-1,22′-[20]Oxa[13]Thia[1,14]Diazatetracyclo[14.7.2.0^3,6.0^19,24]Pentacosa[8,16,18,24]Tetraen]-15′-One 13′,13′-Dioxide]	7.11	9.27	6.39	–	–
COCCO[C@H]1/C=C/CC[C@@H](C)S(=O)(=O)NC(=O)c2ccc3c(c2)N(C[C@@H]2CC[C@H]21)C[C@@]1(CCCc2cc(Cl)ccc21)CO3 [Example 76, (1S,3′R,6′R,7′S,8′E,12′R)-6-Chloro-7′-(2-Methoxyethoxy)-12′-Methyl-3,4-Dihydro-2H,15′H-Spiro[Naphthalene-1,22′-[20]Oxa[13]Thia[1,14]Diazatetracyclo[14.7.2.0^3,6.0^19,24]Pentacos A[8,16,18,24]Tetraen]-15′-One 13′,13′-Dioxide]	7.11	8.95	6.17	–	–
COCCO[C@H]1/C=C/C[C@@H](C)[C@@H](C(C)C)S(=O)(=O)NC(=O)c2ccc3c(c2)N(C[C@@H]2CC[C@H]21)C[C@@]1(CCCc2cc(Cl)ccc21)CO3 [Example 54, (1S,3′R,6′R,7′S,8′E,11′R,12′R)-6-Chloro-7′-(2-Methoxyethoxy)-11′-Methyl-12′-(1-Methylethyl)-3,4-Dihydro-2H,15′H-Spiro[Naphthalene-1,22′-[20]Oxa[13]Thia[1,14]Diazatetracyclo[14.7.2.0^3,6.0^19,24]Pentacosa[8,16,18,24]Tetraen]-15′-One 13′,13′-Dioxide]	7.54	9.82	6.88	–	–
COCCO[C@H]1/C=C/C[C@H](C)CS(=O)(=O)NC(=O)c2ccc3c(c2)N(C[C@@H]2CC[C@H]21)C[C@@]1(CCCc2cc(Cl)ccc21)CO3 (single isomer, unassigned) [Example 78]	6.38	8.57	–	5.56	–
CC[C@@H]1CCCC[C@H](OC)[C@@H]2CC[C@H]2CN2C[C@@]3(CCCc4cc(Cl)ccc43)COc3ccc(cc32)C(=O)NS1(=O)=O [Example 21, (1S,3′R,6′R,7′S,12′R)-6-Chloro-12′-Ethyl-7′-Methoxy-3,4-Dihydro-2H,15′H-Spiro[Naphthalene-1,22′-[20]Oxa[13]Thia[1,14]Diazatetracyclo[14.7.2.0^3,6.0^19,24]Pentacos A[16,18,24]Trien]-15′-One 13′,13′-Dioxide]	6.72	8.56	5.38	–	–
CC(C)[C@@H]1[C@H](C)C/C=C/[C@H](O)[C@@H]2CC[C@H]2CN2C[C@@]3(CCCc4cc(Cl)ccc43)COc3ccc(cc32)C(=O)NS1(=O)=O (single isomer, unassigned) [Example 52]	6.85	9.05	–	5.95	–
CC(C)C[C@@H]1[C@@H](C)C/C=C/[C@H](O)[C@@H]2CC[C@H]2CN2C[C@@]3(CCCc4cc(Cl)ccc43)COc3ccc(cc32)C(=O)NS1(=O)=O (single isomer, unassigned) [Example 65]	6.42	8.28	–	5.48	–
C[C@@H]1CCC[C@H](O)[C@@H]2CC[C@H]2CN2C[C@@]3(CCCc4cc(Cl)ccc43)COc3ccc(cc32)C(=O)NS(=O)(=O)C1 (single isomer, unassigned) [Example 39]	–	7.97	–	–	–
CC[C@@H]1CC/C=C/[C@H](O)[C@@H]2CC[C@H]2CN2C[C@@]3(CCCc4cc(Cl)ccc43)COc3ccc(cc32)C(=O)NS1(=O)=O (single isomer, unassigned) [Example 17]	–	–	6.59	–	–
C[C@H]1C/C=C/[C@H](O)[C@@H]2CC[C@H]2CN2C[C@@]3(CCCc4cc(Cl)ccc43)COc3ccc(cc32)C(=O)NS(=O)(=O)[C@@H]1CC1CC1 (single isomer, unassigned) [Example 60]	7.63	9.29	–	6.80	–
C[C@@H]1CCC[C@H](O)[C@@H]2CC[C@H]2CN2C[C@@]3(CCCc4cc(Cl)ccc43)COc3ccc(cc32)C(=O)NS(=O)(=O)[C@@H]1C (single isomer, unassigned) [Example 35]	7.07	9.02	–	6.14	–
C[C@@H]1C/C=C/[C@H](O)[C@@H]2CC[C@H]2CN2C[C@@]3(CCCc4cc(Cl)ccc43)COc3ccc(cc32)C(=O)NS(=O)(=O)[C@H]1CC1CCC1 (single isomer, unassigned) [Example 64]	6.50	7.86	–	5.06	–
CC[C@H]1C/C=C/[C@H](O)[C@@H]2CC[C@H]2CN2C[C@@]3(CCCc4cc(Cl)ccc43)COc3ccc(cc32)C(=O)NS(=O)(=O)C1 (single isomer, unassigned) [Example 34]	7.42	9.36	6.60	–	–
CC[C@@H]1CC/C=C\[C@H](O)[C@@H]2CC[C@H]2CN2C[C@@]3(CCCc4cc(Cl)ccc43)COc3ccc(cc32)C(=O)NS1(=O)=O (single isomer, unassigned) [Example 18]	–	–	6.16	–	–
CC1(C)CCCC[C@H](O)[C@@H]2CC[C@H]2CN2C[C@@]3(CCCc4cc(Cl)ccc43)COc3ccc(cc32)C(=O)NS1(=O)=O [Example 42]	6.07	8.12	–	–	–
CO[C@H]1/C=C\C[C@H](C)[C@@H](C)S(=O)(=O)NC(=O)c2ccc3c(c2)N(C[C@@H]2CC[C@H]21)C[C@@]1(CCCc2cc(Cl)ccc21)CO3 [Example 5, (1S,3′R,6′R,7′S,8′Z,11′S,12′R)-6-Chloro-7′-Methoxy-11′,12′-Dimethyl-3,4-Dihydro-2H,15′H-Spiro[Naphthalene-1,22′-[20]Oxa[13]Thia[1,14]Diazatetracyclo[14.7.2.0^3,6.0^19,24]Pentacos A[8,16,18,24]Tetraen]-15′-One 13′,13′-Dioxide]	–	–	5.95	–	–
C[C@@H]1CCC[C@H](O)[C@@H]2CC[C@H]2CN2C[C@@]3(CCCc4cc(Cl)ccc43)COc3ccc(cc32)C(=O)NS(=O)(=O)[C@H]1C (single isomer, unassigned) [Example 36]	5.82	7.35	–	–	–
CC[C@H]1CC/C=C/[C@H](O)[C@@H]2CC[C@H]2CN2C[C@@]3(CCCc4cc(Cl)ccc43)COc3ccc(cc32)C(=O)NS1(=O)=O (single isomer, unassigned) [Example 19]	–	–	5.40	–	–
CC[C@H]1CCCC[C@H](O)[C@@H]2CC[C@H]2CN2C[C@@]3(CCCc4cc(Cl)ccc43)COc3ccc(cc32)C(=O)NS1(=O)=O [Example 23, (1S,3′R,6′R,7′S,12′S)-6-Chloro-12′-Ethyl-7′-Hydroxy-3,4-Dihydro-2H,15′H-Spiro[Naphthalene-1,22′-[20]Oxa[13]Thia[1,14]Diazatetracyclo[14.7.2.0^3,6.0^19,24]Pentacos A[16,18,24]Trien]-15′-One 13′,13′-Dioxide]	6.43	8.43	–	–	–
C[C@H]1CCC[C@H](O)[C@@H]2CC[C@H]2CN2C[C@@]3(CCCc4cc(Cl)ccc43)COc3ccc(cc32)C(=O)NS(=O)(=O)[C@H]1C [Example 37, (1S,3′R,6′R,7′S,11′S,12′S)-6-Chloro-7′-Hydroxy-11,12′-Dimethyl-3,4-Dihydro-2H,15′H-Spiro[Naphthalene-1,22′-[20]Oxa[13]Thia[1,14]Diazatetracyclo[14.7.2.0^3,6.0^19,24]Pentacos A[16,18,24]Trien]-15′-One 13′,13′-Dioxide]	6.18	–	5.24	–	–
C[C@H]1CCC[C@H](O)[C@@H]2CC[C@H]2CN2C[C@@]3(CCCc4cc(Cl)ccc43)COc3ccc(cc32)C(=O)NS(=O)(=O)C1 (single isomer, unassigned) [Example 38]	5.98	–	–	–	–
CO[C@H]1/C=C/C[C@H](C)[C@@H](C)S(=O)(=O)NC(=O)c2ccc3c(c2)N(C[C@@H]2CC[C@H]21)C[C@@]1(CCCc2cc(Cl)ccc21)CO3 [Example 4, (1S,3′R,6′R,7′S,8′E,11′S,12′R)-6-Chloro-7′-Methoxy-11′,12′-Dimethyl-3,4-Dihydro-2H,15′H-Spiro[Naphthalene-1,22′-[20]Oxa[13]Thia[1,14]Diazatetracyclo[14.7.2.0^3,6.0^19,24]Pentacos A[8,16,18,24]Tetraen]-15′-One-13′, 13′-Dioxide]	–	–	–	–	6.63
